In patent publication US10058550B2, “Methods of treating heart failure” (priority 2015, dated 2018):

Target: human APJ receptor (Homo sapiens (Human), UniProt P35414)
Test: biochemical
Format: biochemical
Settings: read-out: Activity hAPJ SPA EC50 IP
How it was run: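 Agonist-stimulated [35S]GTPγS (0.2 nM) binding was read by SPA after 90 min at room temperature. Buffer: 20 mM HEPES pH 7.5 with 5 mM MgCl2, 200 mM NaCl, 3 μM GDP, 0.1% BSA; membranes were from a stable human APJ CHO line. EC50 values are averages of independent runs, fitted by non-linear regression.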

human APJ receptor, sequence (P35414 whole entry): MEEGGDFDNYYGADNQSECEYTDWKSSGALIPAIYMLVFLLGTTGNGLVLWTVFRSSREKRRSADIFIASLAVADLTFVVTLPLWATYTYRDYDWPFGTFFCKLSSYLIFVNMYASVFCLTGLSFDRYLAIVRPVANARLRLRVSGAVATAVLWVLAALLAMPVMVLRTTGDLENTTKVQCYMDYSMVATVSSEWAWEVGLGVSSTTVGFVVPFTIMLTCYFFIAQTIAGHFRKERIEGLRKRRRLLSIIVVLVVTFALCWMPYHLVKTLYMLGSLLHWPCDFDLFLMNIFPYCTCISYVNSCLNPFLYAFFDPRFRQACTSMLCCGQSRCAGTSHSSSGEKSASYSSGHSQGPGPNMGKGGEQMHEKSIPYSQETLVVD

Row | SMILES | EC50 [nM]
1 | COc1cccc(OC)c1-n1c(NS(=O)(=O)CCc2ccc(F)cc2C#N)nnc1-c1cncc(Cl)c1 [Example 181.0, N-(5-(5-chloro-3-pyridinyl)-4-(2,6-dimethoxyphenyl)-4H-1,2,4-triazol-3-yl)-2-(2-cyano-4-fluorophenyl)ethanesulfonamide] | 12
2 | COc1cccc(OC)c1-n1c(NS(=O)(=O)[C@@H](C)[C@H](C)c2ncc(F)cn2)nnc1-c1cccc(OCC(F)(F)F)n1 [Example 185.0, (2S,3R)-N-(4-(2,6-dimethoxyphenyl)-5-(6-(2,2,2-trifluoroethoxy)pyridin-2-yl)-4H-1,2,4-triazol-3-yl)-3-(5-fluoropyrimidin-2-yl)butane-2-sulfonamide] | 0.12
3 | COc1cccc(OC)c1-n1c(NS(=O)(=O)[C@@H](C)[C@H](C)c2ncc(F)cn2)nnc1-c1cccc(OCCO)n1 [Example 186.0, (2S,3R)-N-(4-(2,6-dimethoxyphenyl)-5-(6-(2-hydroxyethoxy)pyridin-2-yl)-4H-1,2,4-triazol-3-yl)-3-(5-fluoropyrimidin-2-yl)butane-2-sulfonamide] | 0.12
4 | COc1cccc(OC)c1-n1c(NS(=O)(=O)[C@@H](C)[C@H](OC)c2ncc(C)cn2)nnc1-c1cccc(OCC(F)(F)F)n1 [Example 187.0, (1R,2S)-N-(4-(2,6-dimethoxyphenyl)-5-(6-(2,2,2-trifluoroethoxy)pyridin-2-yl)-4H-1,2,4-triazol-3-yl)-1-methoxy-1-(5-methylpyrimidin-2-yl)propane-2-sulfonamide] | 0.14
5 | COc1cccc(OC)c1-n1c(NS(=O)(=O)[C@@H](C)[C@H](OC)c2ncc(C)cn2)nnc1-c1cccc(OCCO)n1 [Example 188.0, (1R,2S)-N-(4-(2,6-dimethoxyphenyl)-5-(6-(2-hydroxyethoxy)pyridin-2-yl)-4H-1,2,4-triazol-3-yl)-1-methoxy-1-(5-methylpyrimidin-2-yl)propane-2-sulfonamide] | 0.96
6 | COc1cccc(OC)c1-n1c(NS(=O)(=O)[C@@H](C)[C@H](C)c2ncc(F)cn2)nnc1-c1cccc(OCC(C)(C)O)n1 [Example 192.0, (2S,3R)-N-(4-(2,6-dimethoxyphenyl)-5-(6-(2-hydroxy-2-methylpropoxy)pyridin-2-yl)-4H-1,2,4-triazol-3-yl)-3-(5-fluoropyrimidin-2-yl)butane-2-sulfonamide] | 260
7 | COc1cccc(OC)c1-n1c(NS(=O)(=O)[C@@H](C)[C@H](OC)c2ncc(C)cn2)nnc1-c1cccc(OCC(C)(C)O)n1 [Example 193.0, (1R,2S)-N-(4-(2,6-dimethoxyphenyl)-5-(6-(2-hydroxy-2-methylpropoxy)pyridin-2-yl)-4H-1,2,4-triazol-3-yl)-1-methoxy-1-(5-methylpyrimidin-2-yl)propane-2-sulfonamide] | 61
8 | COc1cccc(OC)c1-n1c(NS(=O)(=O)[C@@H](C)[C@H](C)c2ncc(F)cn2)nnc1-c1cccc(OCC(O)(C(F)(F)F)C(F)(F)F)n1 [Example 194.0, (2S,3R)-N-(4-(2,6-dimethoxyphenyl)-5-(6-(3,3,3-trifluoro-2-hydroxy-2-(trifluoromethyl)propoxy)pyridin-2-yl)-4H-1,2,4-triazol-3-yl)-3-(5-fluoropyrimidin-2-yl)butane-2-sulfonamide] | 36
9 | CNc1cccc(-c2nnc(NS(=O)(=O)[C@@H](C)[C@H](OC)c3ncc(C)cn3)n2-c2c(OC)cccc2OC)n1 [Example 195.0, (1R,2S)-N-(4-(2,6-dimethoxyphenyl)-5-(6-(methylamino)pyridin-2-yl)-4H-1,2,4-triazol-3-yl)-1-methoxy-1-(5-methylpyrimidin-2-yl)propane-2-sulfonamide] | 0.35
10 | COCCOc1cccc(-c2nnc(NS(=O)(=O)[C@@H](C)[C@H](OC)c3ncc(C)cn3)n2-c2c(OC)cccc2OC)n1 [Example 196.0, (1R,2S)-N-(4-(2,6-dimethoxyphenyl)-5-(6-(2-methoxyethoxy)pyridin-2-yl)-4H-1,2,4-triazol-3-yl)-1-methoxy-1-(5-methylpyrimidin-2-yl)propane-2-sulfonamide] | 3.4
11 | COc1cccc(OC)c1-n1c(NS(=O)(=O)[C@@H](C)[C@H](OC)c2ncc(C)cn2)nnc1-c1cccc(N(C)C)n1 [Example 197.0, (1R,2S)-N-(4-(2,6-dimethoxyphenyl)-5-(6-(dimethylamino)pyridin-2-yl)-4H-1,2,4-triazol-3-yl)-1-methoxy-1-(5-methylpyrimidin-2-yl)propane-2-sulfonamide] | 0.21
12 | COc1cccc(OC)c1-n1c(NS(=O)(=O)[C@@H](C)[C@H](C)c2cnc(C)cn2)nnc1-c1cccnc1 [Example 198.0, (2S,3R)-N-(4-(2,6-dimethoxyphenyl)-5-(pyridin-3-yl)-4H-1,2,4-triazol-3-yl)-3-(5-methylpyrazin-2-yl)butane-2-sulfonamide] | 1.1
13 | COc1cccc(-c2nnc(NS(=O)(=O)CCc3ccc(F)cc3C#N)n2-c2c(OC)cccc2OC)n1 [Example 200.0, 2-(2-cyano-4-fluorophenyl)-N-(4-(2,6-dimethoxyphenyl)-5-(6-methoxy-2-pyridinyl)-4H-1,2,4-triazol-3-yl)ethanesulfonamide] | 0.57
14 | COc1cccc(OC)c1-n1c(NS(=O)(=O)CCN2C(=O)N(C)CC[C@@H]2C)nnc1-c1cncc(C)c1 [Example 201.0, N-(4-(2,6-dimethoxyphenyl)-5-(5-methyl-3-pyridinyl)-4H-1,2,4-triazol-3-yl)-2-((6S)-3,6-dimethyl-2-oxotetrahydro-1(2H)-pyrimidinyl)ethanesulfonamide] | 2.5
15 | COc1cccc(-c2nnc(NS(=O)(=O)CCc3ccc(F)cc3C#N)n2-c2c(OC)ncnc2OC)n1 [Example 204.0, 2-(2-cyano-4-fluorophenyl)-N-(4-(4,6-dimethoxy-5-pyrimidinyl)-5-(6-methoxy-2-pyridinyl)-4H-1,2,4-triazol-3-yl)ethanesulfonamide] | 1.5
16 | CCNC(=O)c1cccc(-c2nnc(NS(=O)(=O)[C@@H](C)Cc3ncc(F)cn3)n2-c2c(OC)cccc2OC)n1 [Example 229.0, 6-(4-(2,6-dimethoxyphenyl)-5-((((1S)-2-(5-fluoro-2-pyrimidinyl)-1-methylethyl)sulfonyl)amino)-4H-1,2,4-triazol-3-yl)-N-ethyl-2-pyridinecarboxamide, 6-(4-(2,6-dimethoxyphenyl)-5-((((1R)-2-(5-fluoro-2-pyrimidinyl)-1-methylethyl)sulfonyl)amino)-4H-1,2,4-triazol-3-yl)-N-ethyl-2-pyridinecarboxamide] | 6.3
17 | COc1cccc(OC)c1-n1c(NS(=O)(=O)[C@@H](C)[C@H](OC)c2ncccn2)nnc1-c1cncc(C)c1 [Example 250.0, (1R,2S)-N-(4-(2,6-dimethoxyphenyl)-5-(5-methyl-3-pyridinyl)-4H-1,2,4-triazol-3-yl)-1-methoxy-1-(2-pyrimidinyl)-2-propanesulfonamide] | 2.8
18 | COc1cccc(-c2nnc(NS(=O)(=O)[C@@H](C)[C@H](C)c3ncc(C)cn3)n2-c2c(OC)cccc2OC)n1 [Example 313.0, (2S,3R)—N-(4-(2,6-dimethoxyphenyl)-5-(6-methoxy-2-pyridinyl)-4H-1,2,4-triazol-3-yl)-3-(5-methyl-2-pyrimidinyl)-2-butanesulfonamide] | 0.3
19 | COc1cccc(-c2nnc(NS(=O)(=O)[C@H](C)[C@@H](C)c3ncc(C)cn3)n2-c2c(OC)cccc2OC)n1 [Example 314.0, (2R,3S)—N-(4-(2,6-dimethoxyphenyl)-5-(6-methoxy-2-pyridinyl)-4H-1,2,4-triazol-3-yl)-3-(5-methyl-2-pyrimidinyl)-2-butanesulfonamide] | 3.4
20 | COc1cccc(OC)c1-n1c(NS(=O)(=O)CCc2ccc(Cl)cc2)nnc1-c1ccccn1 [Example 368.0, 2-(4-chlorophenyl)-N-(4-(2,6-dimethoxyphenyl)-5-(2-pyridinyl)-4H-1,2,4-triazol-3-yl)ethanesulfonamide] | 59
21 | COc1cccc(OC)c1-n1c(NS(=O)(=O)CCc2ccc(Cl)cc2)nnc1-c1cccnc1 [Example 369.0, 2-(4-chlorophenyl)-N-(4-(2,6-dimethoxyphenyl)-5-(3-pyridinyl)-4H-1,2,4-triazol-3-yl)ethanesulfonamide] | 16
22 | COc1cccc(OC)c1-n1c(NS(=O)(=O)N[C@@H](C)c2ncc(F)cn2)nnc1-c1cncc(C)c1 [Example 392.0] | 48
23 | CCO[C@H](c1ncc(Cl)cn1)[C@H](C)S(=O)(=O)Nc1nnc(-c2cncc(C)c2)n1-c1c(OC)cccc1OC [Example 429.0, (1R,2S)-1-(5-chloropyrimidin-2-yl)-N-(4-(2,6-dimethoxyphenyl)-5-(5-methylpyridin-3-yl)-4H-1,2,4-triazol-3-yl)-1-ethoxypropane-2-sulfonamide] | 0.27
24 | COc1cccc(OC)c1-n1c(NS(=O)(=O)[C@@H](C)[C@H](C)c2ncc(F)cn2)nnc1-c1cccc(C)n1 [Example 453.0, (2S,3R)—N-(4-(2,6-dimethoxyphenyl)-5-(6-methyl-2-pyridinyl)-4H-1,2,4-triazol-3-yl)-3-(5-fluoro-2-pyrimidinyl)-2-butanesulfonamide] | 0.6
25 | COc1cccc(OC)c1-n1c(NS(=O)(=O)[C@@H](C)[C@H](C)c2ncc(F)cn2)nnc1-c1cccc(Cl)n1 [Example 454.0, (2S,3R)—N-(5-(6-chloro-2-pyridinyl)-4-(2,6-dimethoxyphenyl)-4H-1,2,4-triazol-3-yl)-3-(5-fluoro-2-pyrimidinyl)-2-butanesulfonamide] | 0.84
26 | COc1cccc(OC)c1-n1c(NS(=O)(=O)[C@@H](C)[C@H](C)c2ncc(F)cn2)nnc1-c1cccc(-c2ccccc2)n1 [Example 455.0, (2S,3R)—N-(4-(2,6-dimethoxyphenyl)-5-(6-phenyl-2-pyridinyl)-4H-1,2,4-triazol-3-yl)-3-(5-fluoro-2-pyrimidinyl)-2-butanesulfonamide] | 4.9
27 | COc1cccc(OC)c1-n1c(NS(=O)(=O)CCN2C(=O)N(C)CC[C@H]2C)nnc1-c1cncc(C)c1 [Example 460.0, N-(4-(2,6-dimethoxyphenyl)-5-(5-methyl-3-pyridinyl)-4H-1,2,4-triazol-3-yl)-2-((6R)-3,6-dimethyl-2-oxotetrahydro-1(2H)-pyrimidinyl)ethanesulfonamide] | 9.7
